Source: ChEMBL document CHEMBL1144896 (2003)

What was measured:
Assay type in all cases: functional
NCI-H1299 [1] = experiment: Compound was tested for human telomerase reverse transcriptase-SEAP (hTERT-SEAP) activity in non-small cell lung cancer H1299 cell at 2.2 uM concentration
BJ [2] = experiment: Compound was tested for human telomerase reverse transcriptase-SEAP (hTERT-SEAP) activity in immortalized hTERT-BJI at 2.2 uM concentration
NCI-H1299 [3] = experiment: hTERT-SEAP (Human telomerase reverse transcriptase-SEAP) activity in non-small cell lung cancer H1299 cell at 22 uM concentration and level of cell viability determined in MTT assay
BJ [4] = experiment: Compound was tested for human telomerase reverse transcriptase-SEAP (hTERT-SEAP) activity in immortalized hTERT-BJI at 22 uM concentration
BJ [5] = experiment: hTERT-SEAP (Human telomerase reverse transcriptase-SEAP) activity in immortalized hTERT-BJI at 22 uM concentration and level of cell viability determined in MTT assay
NCI-H1299 [6] = experiment: Compound was tested for human telomerase reverse transcriptase-SEAP (hTERT-SEAP) activity in non-small cell lung cancer H1299 cell at 22 uM concentration
NCI-H1299 [7] = experiment: Compound was tested for human telomerase reverse transcriptase-SEAP (hTERT-SEAP) activity in non-small cell lung cancer H1299 cell at 220.0 uM concentration
NCI-H1299 [8] = experiment: hTERT-SEAP (Human telomerase reverse transcriptase-SEAP) activity in non-small cell lung cancer H1299 cell at 2.2 uM concentration and level of cell viability determined in MTT assay
BJ [9] = experiment: hTERT-SEAP (Human telomerase reverse transcriptase-SEAP) activity in immortalized hTERT-BJI at 2.2 uM concentration and level of cell viability determined in MTT assay
BJ [10] = experiment: Compound was tested for human telomerase reverse transcriptase-SEAP (hTERT-SEAP) activity in immortalized hTERT-BJI at 220.0 uM concentration
NCI-H1299 [11] = experiment: hTERT-SEAP (Human telomerase reverse transcriptase-SEAP) activity in non-small cell lung cancer H1299 cell at 220.0 uM concentration and level of cell viability determined in MTT assay
BJ [12] = experiment: hTERT-SEAP (Human telomerase reverse transcriptase-SEAP) activity in immortalized hTERT-BJI at 220.0 uM concentration and level of cell viability determined in MTT assay
BJ [13] = experiment: Compound was tested for human telomerase reverse transcriptase-SEAP (hTERT-SEAP) activity in immortalized hTERT-BJI at 210.0 uM concentration
NCI-H1299 [14] = experiment: Compound was tested for human telomerase reverse transcriptase-SEAP (hTERT-SEAP) activity in non-small cell lung cancer H1299 cell at 210.0 uM concentration
NCI-H1299 [15] = experiment: hTERT-SEAP (Human telomerase reverse transcriptase-SEAP) activity in non-small cell lung cancer H1299 cell at 21 uM concentration and level of cell viability determined in MTT assay
BJ [16] = experiment: Compound was tested for human telomerase reverse transcriptase-SEAP (hTERT-SEAP) activity in immortalized hTERT-BJI at 2.1 uM concentration
BJ [17] = experiment: hTERT-SEAP (Human telomerase reverse transcriptase-SEAP) activity in immortalized hTERT-BJI at 21 uM concentration and level of cell viability determined in MTT assay
NCI-H1299 [18] = experiment: hTERT-SEAP (Human telomerase reverse transcriptase-SEAP) activity in non-small cell lung cancer H1299 cell at 2.1 uM concentration and level of cell viability determined in MTT assay
NCI-H1299 [19] = experiment: Compound was tested for human telomerase reverse transcriptase-SEAP (hTERT-SEAP) activity in non-small cell lung cancer H1299 cell at 2.1 uM concentration
NCI-H1299 [20] = experiment: hTERT-SEAP (Human telomerase reverse transcriptase-SEAP) activity in non-small cell lung cancer H1299 cell at 210.0 uM concentration and level of cell viability determined in MTT assay
NCI-H1299 [21] = experiment: Compound was tested for human telomerase reverse transcriptase-SEAP (hTERT-SEAP) activity in non-small cell lung cancer H1299 cell at 21 uM concentration
BJ [22] = experiment: hTERT-SEAP (Human telomerase reverse transcriptase-SEAP) activity in immortalized hTERT-BJI at 210.0 uM concentration and level of cell viability determined in MTT assay
BJ [23] = experiment: Compound was tested for human telomerase reverse transcriptase-SEAP (hTERT-SEAP) activity in immortalized hTERT-BJI at 21 uM concentration
BJ [24] = experiment: hTERT-SEAP (Human telomerase reverse transcriptase-SEAP) activity in immortalized hTERT-BJI at 230.0 uM concentration and level of cell viability determined in MTT assay
NCI-H1299 [25] = experiment: hTERT-SEAP (Human telomerase reverse transcriptase-SEAP) activity in non-small cell lung cancer H1299 cell at 23 uM concentration and level of cell viability determined in MTT assay
BJ [26] = experiment: hTERT-SEAP (Human telomerase reverse transcriptase-SEAP) activity in immortalized hTERT-BJI at 23 uM concentration and level of cell viability determined in MTT assay
NCI-H1299 [27] = experiment: hTERT-SEAP (Human telomerase reverse transcriptase-SEAP) activity in non-small cell lung cancer H1299 cell at 2.3 uM concentration and level of cell viability determined in MTT assay
BJ [28] = experiment: Compound was tested for human telomerase reverse transcriptase-SEAP (hTERT-SEAP) activity in immortalized hTERT-BJI at 23 uM concentration
NCI-H1299 [29] = experiment: hTERT-SEAP (Human telomerase reverse transcriptase-SEAP) activity in non-small cell lung cancer H1299 cell at 230.0 uM concentration and level of cell viability determined in MTT assay
NCI-H1299 [30] = experiment: Compound was tested for human telomerase reverse transcriptase-SEAP (hTERT-SEAP) activity in non-small cell lung cancer H1299 cell at 23 uM concentration
BJ [31] = experiment: Compound was tested for human telomerase reverse transcriptase-SEAP (hTERT-SEAP) activity in immortalized hTERT-BJI at 230.0 uM concentration
NCI-H1299 [32] = experiment: Compound was tested for human telomerase reverse transcriptase-SEAP (hTERT-SEAP) activity in non-small cell lung cancer H1299 cell at 2.3 uM concentration
NCI-H1299 [33] = experiment: Compound was tested for human telomerase reverse transcriptase-SEAP (hTERT-SEAP) activity in non-small cell lung cancer H1299 cell at 230.0 uM concentration

Structure (SMILES) | Relative SEAP activity (NCI-H1299 [1]) [%] | Relative SEAP activity (BJ [2]) [%] | Relative viability (NCI-H1299 [3]) [%] | Relative SEAP activity (BJ [4]) [%] | Relative viability (BJ [5]) [%] | Relative SEAP activity (NCI-H1299 [6]) [%] | Relative SEAP activity (NCI-H1299 [7]) [%] | Relative viability (NCI-H1299 [8]) [%] | Relative viability (BJ [9]) [%] | Relative SEAP activity (BJ [10]) [%] | Relative viability (NCI-H1299 [11]) [%] | Relative viability (BJ [12]) [%] | Relative SEAP activity (BJ [13]) [%] | Relative SEAP activity (NCI-H1299 [14]) [%] | Relative viability (NCI-H1299 [15]) [%] | Relative SEAP activity (BJ [16]) [%] | Relative viability (BJ [17]) [%] | Relative viability (NCI-H1299 [18]) [%] | Relative SEAP activity (NCI-H1299 [19]) [%] | Relative viability (NCI-H1299 [20]) [%] | also measured
O=C1c2cccc(SCCc3ccccc3)c2C(=O)c2cccc(SCCc3ccccc3)c21 | 108 | 119 | 51 | 109 | 54 | 102 | 97 | 93 | 91 | 110 | 27 | 35 | – | – | – | – | – | – | – | – | –
Cc1ccc(C(=O)Oc2cccc3c2C(=O)c2cccc(OC(=O)c4ccc(C)cc4)c2C3=O)cc1 | – | – | – | – | – | – | – | – | – | – | – | – | 99 | 95 | 33 | 130 | 98 | 61 | 98 | 32 | Relative SEAP activity (NCI-H1299 [21]): 95%; Relative viability (BJ [22]): 56%; Relative SEAP activity (BJ [23]): 126%
Nc1ccc(Sc2cccc3c2C(=O)c2cccc(Sc4ccc(N)cc4)c2C3=O)cc1 | 100 | 97 | 76 | 97 | 65 | 95 | 84 | 103 | 86 | 26 | 42 | – | – | – | – | – | – | – | – | – | –
O=C1c2cccc(SCc3ccccc3)c2C(=O)c2cccc(SCc3ccccc3)c21 | 97 | 117 | 44 | 112 | 98 | 100 | 100 | 83 | 121 | 87 | 34 | 47 | – | – | – | – | – | – | – | – | –
Nc1cccc(Sc2cccc3c2C(=O)c2cccc(Sc4cccc(N)c4)c2C3=O)c1 | 106 | 118 | 68 | 41 | 9 | 109 | 101 | 92 | 104 | 8 | 32 | 4 | – | – | – | – | – | – | – | – | –
O=C1c2cccc(SCCCCCCO)c2C(=O)c2cccc(SCCCCCCO)c21 | – | – | – | – | – | – | – | – | – | – | – | – | 75 | 68 | 94 | 140 | 70 | 99 | 110 | 36 | Relative SEAP activity (NCI-H1299 [21]): 100%; Relative viability (BJ [22]): 40%; Relative SEAP activity (BJ [23]): 128%
Cc1ccc(Sc2cccc3c2C(=O)c2cccc(Sc4ccc(C)cc4)c2C3=O)cc1 | 117 | 132 | 41 | 109 | 77 | 103 | 90 | 84 | 111 | 87 | 25 | 22 | – | – | – | – | – | – | – | – | –
Cc1cccc(C(=O)Oc2cccc3c2C(=O)c2cccc(OC(=O)c4cccc(C)c4)c2C3=O)c1 | – | – | – | – | – | – | – | – | – | – | – | – | 86 | 110 | 28 | 141 | 54 | 26 | 104 | 29 | Relative SEAP activity (NCI-H1299 [21]): 116%; Relative viability (BJ [22]): 47%; Relative SEAP activity (BJ [23]): 124%
CCCCCC(=O)Oc1cccc2c1C(=O)c1cccc(OC(=O)CCCCC)c1C2=O | – | – | – | – | – | – | – | – | – | – | – | – | – | – | – | – | – | – | – | – | Relative viability (BJ [24]): 62%; Relative viability (NCI-H1299 [25]): 114%; Relative viability (BJ [26]): 98%; Relative viability (NCI-H1299 [27]): 117%; Relative SEAP activity (BJ [28]): 149%; Relative viability (NCI-H1299 [29]): 106%; Relative SEAP activity (NCI-H1299 [30]): 95%; Relative SEAP activity (BJ [31]): 124%; Relative SEAP activity (NCI-H1299 [32]): 91%; Relative SEAP activity (NCI-H1299 [33]): 95%
O=C(Oc1cccc2c1C(=O)c1cccc(OC(=O)c3ccccc3)c1C2=O)c1ccccc1 | 88 | 137 | 60 | 122 | 87 | 94 | 86 | 99 | 103 | 84 | 33 | 51 | – | – | – | – | – | – | – | – | –
O=C(Cc1ccccc1)Oc1cccc2c1C(=O)c1cccc(OC(=O)Cc3ccccc3)c1C2=O | – | – | – | – | – | – | – | – | – | – | – | – | 100 | 142 | 53 | 129 | 97 | 91 | 98 | 30 | Relative SEAP activity (NCI-H1299 [21]): 101%; Relative viability (BJ [22]): 64%; Relative SEAP activity (BJ [23]): 125%
Cc1ccccc1C(=O)Oc1cccc2c1C(=O)c1cccc(OC(=O)c3ccccc3C)c1C2=O | – | – | – | – | – | – | – | – | – | – | – | – | 94 | 90 | 36 | 129 | 82 | 72 | 97 | 45 | Relative SEAP activity (NCI-H1299 [21]): 91%; Relative viability (BJ [22]): 39%; Relative SEAP activity (BJ [23]): 120%
